Measured values as given in patent publication US4725598A, “Derivative of dihydroxybenzamide and a pharmaceutical composition having an anti-inflammatory activity” (priority 1983, dated 1988).
Where two headings read alike, the source gives them in different places.

What was measured:
platelet aggregation = assay: Inhibitory activity of platelet aggregation (sodium arachidonate induced, platelet-rich plasma); format: cell-based; details: Oryctolagus cuniculus, rabbit plasma, sodium arachidonate 400 μM, read-out: IC100 (concentration necessary for inhibiting platelet aggregation perfectly)
Method: After collecting blood specimen from the auricular vein of a male rabbit of an ordinary race in the presence of citrate, the thus collected blood was subjected to centrifugation to obtain a platelet-rich plasma (PRP) and a platelet-poor plasma (PPP) therefrom. The plasma containing 300,000 platelets/μl was prepared by diluting the PRP with the PPP, and divided equally into two portions.
Into the first portion of the thus obtained plasma mixture, as control, dimethylsulfoxide was added, and then, an aqueous solution of sodium arachidonate as an aggregation agent prepared by dissolving thereof into a saline solution was added to the resultant mixture to adjust the final concentration of the arachidonate therein to 400 μM.
On the other hand, into the second portion thereof, a solution of each of the present compounds shown in Table 1 in dimethylsulfoxide was added, and then, the above-mentioned aqueous solution of sodium arachidonate was added to the resultant mixture.
The platelet aggregation reactions were measured with the aid of a platelet aggregation tracer (model PAT-4A, made by NIKO Bioscience Co., Ltd.) and its IC100 values (the concentration of an agent necessary for inhibiting platelet aggregation perfectly) are shown in Table 1.

[1] = test system: migration of polymorphonuclear leukocytes; assay: Inhibition of migration of polymorphonuclear leukocytes, in vivo pouch-CMC method; set-up: species or system male Donryu rats
Method: The activity of each of the present compounds in in vivo inhibiting the migration of polymorphonuclear leukocytes was examined by the pouch-CMC method presented by Ishikawa (refer to J. Pharmaceut. Soc., Japan, 88, 1472, 1968) using male Donryu rats.
After cutting the hairs on the back of each male Donryu rat at a 5 cm square, 5 ml of air were subcutaneously injected into the hair-cut position, and after 24 hours of the injection, 5 ml of a 0.2% solution of sodium carboxymethylcellulose in a saline was injected into the pouch made by the injected air.
After dividing the rats into 3 groups, an aqueous 0.2% solution of carboxymethylcellulose was orally administered to each rat of the first group at a rate of 1 ml/100 g body weight (as control), and each of the present compounds (Compounds Nos. 1, 2 and 4) was orally administered to each rat of the second group after suspending the compound in an aqueous 0.2% solution of carboxymethylcellulose. Each rat of the third group is orally administered with an aqueous solution of indomethacin as positive control.
After 3 and 6 hours of the injection, the exudates in the pouch were collected from each rat, and the number of polymorphonuclear leukocytes (hereinafter referred to as PMN) exudated was counted and, the results are shown in Table 2.

granuloma formation = format: in vivo, male Donryu rats; details: 10 days
Method: The activity of the present compounds in inhibiting the granuloma formation was examined according to the method of Fujimura et al. (refer to "OYO YAKURI", 19(3), 329(1981)) while using male Donryu rats of 5 weeks after birth as follows.
(§1) After burying a paper disk of 13 mm in diameter and 0.26 mm in thickness immersed in an aqueous 2% solution of carboxymethylcellulose (hereinafter referred to as CMC) containing both dihydroxystreptomycin and penicillin (both of 10^6 unit at a rate of 0.1 mg/ml) into the back of each rat under anesthesia by ether, the rats were divided into four groups. To rats of the first group, an aqueous 0.3% solution of CMC was orally administered every day for 10 days, to rat of the second group, an aqueous dispersion of one of the present compounds shown in Table 3 in an aqueous 0.3% solution of CMC was orally administered every day for 10 days and to rat of the third and fourth groups, an aqueous 0.3% solution of CMC containing either indomethacin or prednisolone was orally administered every day for 10 days.
The rate of inhibiting the granuloma formation was obtained from the following formula: [formula] wherein T is the average weight of granuloma in the test group and C is the average weight of granuloma in the control group.

adjuvant arthritis = assay: Inhibitory activity of adjuvant arthritis; format: in vivo, male Lewis rats; details: for Increment of the volume of hind paw after 21 days of injection (I1): at beginning of administration; for Increment of the volume of hind paw after 36 days of injection (I2) / Rate of inhibiting adjuvant arthritis: 14 days
Method: The activity of the present compound in inhibiting the adjuvant arthritis was examined while using groups of male Lewis rats of 8 weeks after birth and according to the method of Fujihira et al. (refer to "OYO YAKURI", 5(2), 169, (1971)) as follows.
Groups of 8 rats were used, and to each rat of whole groups under anesthesia by ether, a Freund's complete adjuvant dissolved in mineral oil at a concentration of 0.6 mg/0.1 ml was injected intradermally into the trail thereof.
After 3 weeks of the injection, to each rat of a group an aqueous dispersion of one of the present compounds shown in Table 4 in an aqueous 0.3% solution of CMC was orally administered every day for 14 days, and to each of the control group, the aqueous 0.3% solution of CMC was administered in a similar manner, each rat of the positive control group being treated with the similar oral administration of prednisolone in the aqueous 0.3% solution of CMC. The volume of the hind paw of each rat was measured on the day of starting the administration and on the next day after finishing the administration.
The results of the test are shown in Table 4 as the increment of the volume of the hind paw and the rate of inhibiting the increase of the volume thereof.
The increment of the volume of the hind paw at the beginning of the administration, namely after 21 days of the injection of the complete adjuvant (I1), and the increment of that after the finishing of the injection, namely after 36 days of the injection of the complete adjuvant (I2) are respectively as follows.
wherein V0 is the volume of the hind paw just before the injection, V1 is that after 21 days of the injection and V2 is that after 36 days of the injection.
The rate of inhibiting the increase of the volume of the hind paw, namely the activity of treating the adjuvant arthritis is obtained by the following formula: [formula]

[2] = set-up: species or system male Donryu rats; details: rat, in vivo
Method: as §1

O=C(Nc1ccccn1)c1ccc(O)c(O)c1 [Compound No. 2, N--(2-pyridyl)-3,4-dihydroxybenzamide]
IC100 (platelet aggregation): 25 µM
Inhibition rate of exudation of PMN ([1]; after 3 hr, 50 mg/kg oral): 53.1%
Number of PMN in exudated liquid ([1]; after 3 hr, 50 mg/kg oral): 2.3 (number/mm^3) × 10^3
Inhibition rate of exudation of PMN ([1]; after 6 hr, 50 mg/kg oral): 37.6%
Number of PMN in exudated liquid ([1]; after 6 hr, 50 mg/kg oral): 13.6 (number/mm^3) × 10^3
Rate of inhibition of granuloma formation (granuloma formation; 25 mg/kg/day oral): 64%
Weight of dried granuloma (granuloma formation; 25 mg/kg/day oral): 98 mg
Rate of inhibition of granuloma formation (granuloma formation; 50 mg/kg/day oral): 76%
Weight of dried granuloma (granuloma formation; 50 mg/kg/day oral): 69 mg
Increment of the volume of hind paw after 21 days of injection (I1) (adjuvant arthritis; 25 mg/kg/day group): 1.32 mL
Increment of the volume of hind paw after 36 days of injection (I2) (adjuvant arthritis; 25 mg/kg/day oral): 0.51 mL
Rate of inhibiting adjuvant arthritis (adjuvant arthritis; 25 mg/kg/day oral): 61%
Increment of the volume of hind paw after 21 days of injection (I1) (adjuvant arthritis; 50 mg/kg/day group): 1.30 mL
Increment of the volume of hind paw after 36 days of injection (I2) (adjuvant arthritis; 50 mg/kg/day oral): 0.53 mL
Rate of inhibiting adjuvant arthritis (adjuvant arthritis; 50 mg/kg/day oral): 59%

CCCCNC(=O)c1ccc(O)c(O)c1 [compound 3, N--(n-butyl)-3,4-dihydroxybenzamide]
IC100 (platelet aggregation): 45 µM

O=C(c1ccc(O)c(O)c1)N1CCCCC1 [compound 4, 3,4-dihydroxybenzpiperidide]
IC100 (platelet aggregation): 65 µM
Inhibition rate of exudation of PMN ([1]; after 3 hr, 50 mg/kg oral): 46.9%
Number of PMN in exudated liquid ([1]; after 3 hr, 50 mg/kg oral): 2.6 (number/mm^3) × 10^3
Inhibition rate of exudation of PMN ([1]; after 6 hr, 50 mg/kg oral): 25.2%
Number of PMN in exudated liquid ([1]; after 6 hr, 50 mg/kg oral): 16.3 (number/mm^3) × 10^3
Rate of inhibition of granuloma formation (granuloma formation; 25 mg/kg/day oral): 49%
Weight of dried granuloma (granuloma formation; 25 mg/kg/day oral): 146 mg
Rate of inhibition of granuloma formation (granuloma formation; 50 mg/kg/day oral): 65%
Weight of dried granuloma (granuloma formation; 50 mg/kg/day oral): 101 mg

C[C@]12C=CC(=O)C=C1CC[C@@H]1[C@@H]2[C@@H](O)C[C@@]2(C)[C@H]1CC[C@]2(O)C(=O)CO [prednisolone, reference compound]
Rate of inhibition of granuloma formation (granuloma formation; 3 mg/kg/day oral): 45%
Weight of dried granuloma (granuloma formation; 3 mg/kg/day oral): 158 mg
Increment of the volume of hind paw after 21 days of injection (I1) (adjuvant arthritis; 3 mg/kg/day group): 1.27 mL
Increment of the volume of hind paw after 36 days of injection (I2) (adjuvant arthritis; 3 mg/kg/day oral): 0.71 mL
Rate of inhibiting adjuvant arthritis (adjuvant arthritis; 3 mg/kg/day oral): 44%
autopsy findings, gastric [2]: hemorrhage from the gastric mucosa and formation of stomach ulcer were found
autopsy findings, thymus [2]: atrophy of the thymus was significantly found

CCCCCCCCCCCCNC(=O)c1ccc(O)c(O)c1 [compound 5, N--(n-dodecyl)-3,4-dihydroxybenzamide]
IC100 (platelet aggregation): < 18 µM

COc1ccc2c(c1)c(CC(=O)O)c(C)n2C(=O)c1ccc(Cl)cc1 [indomethacin, reference compound]
Inhibition rate of exudation of PMN ([1]; after 3 hr, 3 mg/kg oral): 20.4%
Number of PMN in exudated liquid ([1]; after 3 hr, 3 mg/kg oral): 3.9 (number/mm^3) × 10^3
Inhibition rate of exudation of PMN ([1]; after 6 hr, 3 mg/kg oral): 22.0%
Number of PMN in exudated liquid ([1]; after 6 hr, 3 mg/kg oral): 17.0 (number/mm^3) × 10^3
Rate of inhibition of granuloma formation (granuloma formation; 3 mg/kg/day oral): 39%
Weight of dried granuloma (granuloma formation; 3 mg/kg/day oral): 175 mg
autopsy findings, gastric [2]: hemorrhage from the gastric mucosa and formation of stomach ulcer were found

O=C(NCCCc1ccccc1)c1ccc(O)c(O)c1 [compound 6, N--(ω-phenylpropyl)-3,4-dihydroxybenzamide]
IC100 (platelet aggregation): 80 µM

CCCCCCCCNC(=O)c1ccc(O)c(O)c1 [Compound No. 1, N-(n-octyl)-3,4-dihydroxybenzamide]
IC100 (platelet aggregation): < 18 µM
Inhibition rate of exudation of PMN ([1]; after 3 hr, 50 mg/kg oral): 51.0%
Number of PMN in exudated liquid ([1]; after 3 hr, 50 mg/kg oral): 2.4 (number/mm^3) × 10^3
Inhibition rate of exudation of PMN ([1]; after 6 hr, 50 mg/kg oral): 22.9%
Number of PMN in exudated liquid ([1]; after 6 hr, 50 mg/kg oral): 16.8 (number/mm^3) × 10^3
Rate of inhibition of granuloma formation (granuloma formation; 25 mg/kg/day oral): 53%
Weight of dried granuloma (granuloma formation; 25 mg/kg/day oral): 135 mg
Rate of inhibition of granuloma formation (granuloma formation; 50 mg/kg/day oral): 72%
Weight of dried granuloma (granuloma formation; 50 mg/kg/day oral): 80 mg
Increment of the volume of hind paw after 21 days of injection (I1) (adjuvant arthritis; 25 mg/kg/day group): 1.29 mL
Increment of the volume of hind paw after 36 days of injection (I2) (adjuvant arthritis; 25 mg/kg/day oral): 0.65 mL
Rate of inhibiting adjuvant arthritis (adjuvant arthritis; 25 mg/kg/day oral): 50%
Increment of the volume of hind paw after 21 days of injection (I1) (adjuvant arthritis; 50 mg/kg/day group): 1.28 mL
Increment of the volume of hind paw after 36 days of injection (I2) (adjuvant arthritis; 50 mg/kg/day oral): 0.59 mL
Rate of inhibiting adjuvant arthritis (adjuvant arthritis; 50 mg/kg/day oral): 54%

CN1CCN(C(=O)c2ccc(O)c(O)c2)CC1 [compound 7, 3,4-dihydroxybenz-N--methylpiperazide]
IC100 (platelet aggregation): 300 µM
